One data set relates to T. equiperdum WT. Put plainly: Resazurin-based drug sensitivity assay, T. equiperdum WT. The format is cell-based. As to conditions: Trypanosoma equiperdum. The method, then:
(§1) Other Trypanosoma species used in this study include T. evansi AntTat 3/3 (Wild-type); and T. equiperdum BoTat 1 (Bordeaux trypanozoon antigenic type 1) P (wild-type). All the trypanosomes were used only as bloodstream trypomastigotes and cultured in the standard Hirumi’s Modified Iscove’s medium #9 (HMI-9), supplemented with 10% heat-inactivated Fetal Bovine Serum (FBS), 14 μL/L β-mercaptoethanol, and 3.0 g sodium hydrogen carbonate per liter of medium (pH 7.4). Trypanosomes were cultured in vented flasks at 37 °C in a 5% CO2 atmosphere.
(§2) Briefly, this protocol involves preparing a 96-well cell culture plate with a 100 μL serially diluted test compound (200 μM top concentration) in HMI-9 + 10% FBS (24 wells per control drug or test compound, with the 24th well serving as drug-free). This is followed by adjusting the cell density of mid-log-phase trypanosome cultures to the required concentration of 2 × 10^5 cells/mL (2 × 10^4 cells/well). […] All incubations were carried out at 37 °C with 5% CO2. […] EC50 values were calculated using GraphPad Prism 9.0 software via nonlinear regression with an equation for a sigmoidal dose–response curve with variable slope (GraphPad Software Inc., San Diego, CA, USA).
On the technique in general: Alamar Blue is a resazurin reagent that responds to reducing activity.

A further data set concerns T. brucei aqp1-3 null. The data set is described as follows: microbe, parasite or virus in culture. The format is cell-based, T. b. brucei. As to conditions: Trypanosoma brucei, read-out: aqp1-3 null EC50. The method, then:
as §1, §2

The next data set concerns T. brucei B48. The data set is described as follows: microbe, parasite or virus in culture. Type of data set: cell-based, T. b. brucei. The settings on record: Trypanosoma brucei, read-out: T. brucei B48 EC50. On the procedure:
as §1, §2

The nature of data set [1]: Microsomal stability, human liver microsomes. Type of data set: in vitro ADME. The settings on record: both sexes, pH 7.4, 0.5 mg/mL microsomes, NADPH. On the procedure:
Pooled mixed gender human liver microsomes (HLMs) and Pooled CD1 mouse liver microsomes (female) were purchased from Tebubio. The NADPH regenerating system was purchased from Promega. All other reagents and solvents were of special or analytical grade and were commercially available. The assays were performed according to a reported protocol with small changes. […] The reactions were initiated by adding liver microsomes at a final concentration of 0.5 mg/mL in a total volume of 250 μL. […] The supernatants were analyzed with LC/MS for the amount of parent compound remaining, and the CLint and t 1/2 were determined.
(In general: Liver microsomes are vesicles of endoplasmic reticulum, rich in cytochrome P450 enzymes.)

A further data set deals with T. brucei. Put plainly: DNA configuration by fluorescence microscopy after DAPI staining. The format is cell-based. The settings on record: 2 × EC50, by 24 h. An excerpt:
To assess the cause of the apparent 24-h growth arrest visualized in Figure , we assessed the cellular DNA content by flow cytometry of fixed trypanosomes stained with the nucleic acid dye propidium iodide after RNase treatment. […] This indicates an inability to initiate new synthesis of nuclear DNA, while cells that already past that checkpoint were able to complete cell division. […] In T. brucei, the first phase of the cell cycle is the replication of the kinetoplast, before the subsequent duplication of the nucleus. Thus, at the start of the experiment (t = 0 h) an equal percentage of cells in the “compound 1” and “untreated control” cultures contained a single nucleus and kinetoplast (1N1K) or were in the initial stages of cell division with 2 kinetoplasts (1N2K) (Figure B). […] These observations strengthen our conclusion that treatment with 1 stops the initiation of a new cell division cycle, and specifically the replication of the kinetoplast that must precede nuclear DNA synthesis in trypanosomes. […]
The configuration of nuclei and kinetoplast DNA of treated and untreated T. brucei was visualized using a Vectashield mounting medium with the dye 4,6-diamidino-2-phenylindole (DAPI) (Vector Lab. CA, USA), as described. […] At least 500 cells were scored per slide for the number of kinetoplasts (K) and nuclei (N) as 1N1K, 1N2K, 2N2K, or other.

The subject of another data set is T. b. brucei SUR10. The data set is described as follows: microbe, parasite or virus in culture. Type of data set: cell-based. As to conditions: Trypanosoma brucei, read-out: SUR10 EC50.
The nature of another data set: Stability in PBS buffer. As to conditions: 37 °C.
The next data set concerns T. evansi WT. The data set is described as follows: Resazurin-based drug sensitivity assay, T. evansi WT. The format is cell-based. The method, then:
as §1, §2

Data set [2] deals with Human Embryonic Kidney (HEK) 293-T cells. Put plainly: Cytotoxicity assay using Human Embryonic Kidney (HEK) 293 cells.
Procedure: In brief, HEK cells were grown in a culture made of 500 mL Dulbecco’s Modified Eagle’s Medium (DMEM) (Sigma), 50 mL New-born Calf Serum (NBCS) (Gibco), 5 mL L-Glutamax (200 mM, Gibco), and 5 mL Penicillin/ [...

Molecules are shown by their SMILES. “And” between values parts separate entries of the source, which are not always exact repeats. Equal values may be shown once.

Consider `Cc1cc(O)ccc1C(=O)OCCCCCCCCCCCCCC[P+](c1ccccc1)(c1ccccc1)c1ccccn1.[Br-]` [Compound 1, {14-[(4-Hydroxy-2-methylbenzoyl)-oxy]-tetradecyl}-diphenyl(pyridin-2-yl)-Phosphonium Bromide], for which the EC50 with T. equiperdum WT came to 2.2 ± 0.2 nM; with T. brucei aqp1-3 null it was 1.2 ± 0.13 nM; in the data set on T. brucei B48, 2.5 ± 0.1 nM; with T. b. brucei SUR10, 3.6 ± 0.9 nM; in the data set on T. evansi WT it was 1.2 ± 0.1 nM. The microsomal CLint at 1 μM in [1] (read-out: CLint,met in human microsomes) was found to be 216 ± 2.3 µL/min/mg. In addition, in data set [1] (read-out: t1/2 in human microsomes), the half-life at 1 μM was found to be 6.2 min. Besides, the “Percentage of 1N1K cells” value with T. brucei came to 100%. In addition, the “Stability in PBS buffer” value in “Stability in PBS buffer” is listed as ≥ 1 h. For the same compound, in data set [2], the “SI (selectivity index) for T. congolense” value is 182. Further, the “HEK EC50 (CC50, cytotoxicity)” value in [2] (HEK 293-T cells, n = 3) is 7490 nM and 7490 ± 100 nM. In addition, the “HEK SI (selectivity index)” value in data set [2] (SI = CC50 of HEK/EC50 of T. b. b WT (no glycerol)) amounted to 2385.

As a reminder, the EC50 is the concentration that produces a half-maximal response.

The values are drawn from publication PMC12406258, “Uncovering the Unusual Inhibition Mechanism of a Trypanosome Alternative Oxidase Inhibitor Displaying Broad-Spectrum Activity against African Animal Trypanosomes” (Journal of Medicinal Chemistry, 2025).
